Experimental data as given in PubChem BioAssay AID248 (DTP/NCI, 2004).
Several values for one entry are separate records, joined by “and”; a condition that tells them apart may be missing. Equal entries are not always repeated. Toxic doses and inconclusive results are not listed. Cut-off read from the data, not from the text of the source: active = T/C of 150% or more; inactive = T/C below 125%.

Tested on: L1210 leukemia ip in BDF1 mice, survival T/C
Experiment: NCI In Vivo Anticancer Drug Screen. Data for tumor model L1210 Leukemia (intraperitoneal) in B6D2F1 (BDF1) mice
Settings: endpoint: mean survival time, higher = longer survival
How it was run: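 Read-out is survival time, reported as the treated-group measurement over the vehicle-control measurement.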

[1] = dose: 100.0 mg/kg/injection, schedule: Q04DX003 (ip), vehicle: saline with Tween-80
[2] = dose: 200.0 mg/kg/injection, schedule: Q04DX003 (ip), vehicle: saline with Tween-80
[3] = dose: 400.0 mg/kg/injection, schedule: Q04DX003 (ip), vehicle: saline with Tween-80
[4] = dose: 100.0 mg/kg/injection, schedule: Q01DX001 (ip), vehicle: saline
[5] = dose: 200.0 mg/kg/injection, schedule: Q01DX001 (ip), vehicle: saline
[6] = dose: 400.0 mg/kg/injection, schedule: Q01DX001 (ip), vehicle: saline
[7] = dose: 100.0 mg/kg/injection, schedule: Q01DX009 (ip), vehicle: Klucel (hydroxypropylcellulose) (HPC)
[8] = dose: 100.0 mg/kg/injection, schedule: Q04DX003 (ip), vehicle: Klucel (hydroxypropylcellulose) (HPC)
[9] = dose: 200.0 mg/kg/injection, schedule: Q01DX009 (ip), vehicle: Klucel (hydroxypropylcellulose) (HPC)
[10] = dose: 200.0 mg/kg/injection, schedule: Q04DX003 (ip), vehicle: Klucel (hydroxypropylcellulose) (HPC)
[11] = dose: 400.0 mg/kg/injection, schedule: Q01DX009 (ip), vehicle: Klucel (hydroxypropylcellulose) (HPC)
[12] = dose: 400.0 mg/kg/injection, schedule: Q04DX003 (ip), vehicle: Klucel (hydroxypropylcellulose) (HPC)
[13] = dose: 100.0 mg/kg/injection, schedule: Q04DX002 (ip), vehicle: Klucel (hydroxypropylcellulose) (HPC)
[14] = dose: 200.0 mg/kg/injection, schedule: Q04DX002 (ip), vehicle: Klucel (hydroxypropylcellulose) (HPC)
[15] = dose: 400.0 mg/kg/injection, schedule: Q04DX002 (ip), vehicle: Klucel (hydroxypropylcellulose) (HPC)

Measured: T/C

CC(=O)OCC1OC(n2cnc3c(=S)nc(N)[nH]c32)CC1OC(C)=O (stereo not given)
inactive: dose: 2.5 mg/kg/injection, schedule: Q01DX002 (ip), vehicle: Klucel (hydroxypropylcellulose) (HPC) 118 % of control | dose: 5.0 mg/kg/injection, schedule: Q04DX003 (ip), vehicle: Klucel (hydroxypropylcellulose) (HPC) 117 % of control | dose: 10.0 mg/kg/injection, schedule: Q01DX002 (ip), vehicle: Klucel (hydroxypropylcellulose) (HPC) 119 % of control | dose: 10.0 mg/kg/injection, schedule: Q04DX003 (ip), vehicle: Klucel (hydroxypropylcellulose) (HPC) 121 % of control | dose: 20.0 mg/kg/injection, schedule: Q01DX002 (ip), vehicle: Klucel (hydroxypropylcellulose) (HPC) 123 % of control

CC12CCC(CC1C(=O)O)C2 (stereo not given)
inactive: [1] 96 % of control | [2] 94 % of control | [3] 98 % of control

c1ccc(C2=NOC(c3ccccc3)C2)cc1 (stereo not given)
inactive: dose: 75.0 mg/kg/injection, schedule: Q01DX009 (ip), vehicle: Klucel (hydroxypropylcellulose) (HPC) 105 % of control | dose: 75.0 mg/kg/injection, schedule: Q04DX003 (ip), vehicle: Klucel (hydroxypropylcellulose) (HPC) 95 % of control | dose: 150.0 mg/kg/injection, schedule: Q01DX009 (ip), vehicle: Klucel (hydroxypropylcellulose) (HPC) 105 % of control | dose: 150.0 mg/kg/injection, schedule: Q04DX003 (ip), vehicle: Klucel (hydroxypropylcellulose) (HPC) 100 % of control | dose: 300.0 mg/kg/injection, schedule: Q01DX009 (ip), vehicle: Klucel (hydroxypropylcellulose) (HPC) 100 % of control | dose: 300.0 mg/kg/injection, schedule: Q04DX003 (ip), vehicle: Klucel (hydroxypropylcellulose) (HPC) 95 % of control

CC(=O)Nc1ccc(C(=O)NNC2=C(NNC(=O)c3ccc(NC(C)=O)cc3)C(=O)c3ccccc3C2=O)cc1
inactive: dose: 75.0 mg/kg/injection, schedule: Q04DX003 (ip), vehicle: saline 100 % of control | dose: 150.0 mg/kg/injection, schedule: Q04DX003 (ip), vehicle: saline 91 % of control | dose: 300.0 mg/kg/injection, schedule: Q04DX003 (ip), vehicle: saline 91 % of control

CSc1nc(N)c2n[nH]nc2n1
inactive: [1] 103 % of control | [2] 95 % of control | [3] 95 % of control

O=C=Nc1ccccc1-c1ccccc1
inactive: dose: 100.0 mg/kg/injection, schedule: Q04DX002 (ip), vehicle: saline with Tween-80 98 % of control | dose: 200.0 mg/kg/injection, schedule: Q04DX002 (ip), vehicle: saline with Tween-80 98 % of control | dose: 400.0 mg/kg/injection, schedule: Q04DX002 (ip), vehicle: saline with Tween-80 100 % of control

CCOC(=O)CNS(=O)(=O)c1ccccc1
inactive: [4] 98 % of control | [5] 101 % of control | [6] 101 % of control

Cc1c(Cl)cccc1NC(=O)c1ccc(Cl)cc1Cl
inactive: [7] 92 % of control | [8] 92 % of control | [9] 94 % of control | [10] 95 % of control | [11] 91 % of control | [12] 93 % of control

Cc1ccc(S(=O)(=O)N/N=C/C=C\C=N\NS(=O)(=O)c2ccc(C)cc2)cc1
inactive: [7] 98 % of control | [9] 96 % of control | [11] 90 % of control

CN(C)/N=C/c1ccccc1O
inactive: dose: 100.0 mg/kg/injection, schedule: Q01DX009 (ip), vehicle: saline 96 % of control | dose: 200.0 mg/kg/injection, schedule: Q01DX009 (ip), vehicle: saline 104 % of control | dose: 400.0 mg/kg/injection, schedule: Q01DX009 (ip), vehicle: saline 96 % of control

C=NNc1nc2ccccc2s1
inactive: dose: 100.0 mg/kg/injection, schedule: Q04DX003 (ip), vehicle: gum acacia 96 % of control | dose: 200.0 mg/kg/injection, schedule: Q04DX003 (ip), vehicle: gum acacia 88 % of control

CCCCOCCOCCOc1ccc(Cl)cc1
inactive: dose: 100.0 mg/kg/injection, schedule: Q04DX002 (ip), vehicle: saline 100 % of control | dose: 200.0 mg/kg/injection, schedule: Q04DX002 (ip), vehicle: saline 113 % of control | dose: 400.0 mg/kg/injection, schedule: Q04DX002 (ip), vehicle: saline 100 % of control

Oc1ccc2ccc(O)cc2c1
inactive: [13] 105 % of control | [14] 108 % of control | [15] 102 % of control

CC1(Cl)CCC(C(C)(C)Cl)CC1 (stereo not given)
inactive: [4] 101 % of control | [5] 90 % of control | [6] 90 % of control

CCC(O)C(CC(C)N(C)C)(c1ccccc1)c1ccccc1 (stereo not given)
inactive: [4] 108 % of control

CSc1ccc(NC(=O)Nc2cc(C)c(C)cc2C)cc1
inactive: dose: 100.0 mg/kg/injection, schedule: Q01DX009 (ip), vehicle: other 86 % of control | dose: 200.0 mg/kg/injection, schedule: Q01DX009 (ip), vehicle: other 93 % of control and 90 % of control | dose: 400.0 mg/kg/injection, schedule: Q01DX009 (ip), vehicle: other 93 % of control and 106 % of control

O=C(Nc1[nH]nc2nccnc12)C(F)(F)F
inactive: dose: 100.0 mg/kg/injection, schedule: Q01DX009 (ip), vehicle: saline with Tween-80 97 % of control | [1] 105 % of control | dose: 200.0 mg/kg/injection, schedule: Q01DX009 (ip), vehicle: saline with Tween-80 92 % of control | [2] 97 % of control | dose: 400.0 mg/kg/injection, schedule: Q01DX009 (ip), vehicle: saline with Tween-80 103 % of control | [3] 100 % of control

O=C(OCc1ccccc1CN1CCCCC1)c1cccc(Cl)c1
inactive: [13] 109 % of control | [14] 98 % of control | [15] 91 % of control

CSc1cc(-c2ccc(Cl)cc2)s[s+]1
inactive: dose: 12.5 mg/kg/injection, schedule: Q01DX009 (ip), vehicle: saline with Tween-80 95 % of control | dose: 25.0 mg/kg/injection, schedule: Q01DX009 (ip), vehicle: saline with Tween-80 90 % of control | dose: 25.0 mg/kg/injection, schedule: Q04DX003 (ip), vehicle: saline with Tween-80 100 % of control | dose: 50.0 mg/kg/injection, schedule: Q01DX009 (ip), vehicle: saline with Tween-80 97 % of control | dose: 50.0 mg/kg/injection, schedule: Q04DX003 (ip), vehicle: saline with Tween-80 103 % of control | [1] 98 % of control and 86 % of control

S=C1NC2(CCCCC2)NC12CCCCC2
inactive: [7] 97 % of control | [8] 101 % of control | [9] 98 % of control | [10] 103 % of control | [11] 93 % of control | [12] 101 % of control

CCC1=C[C@H]2CN(CCc3c([nH]c4ccccc34)[C@@](C(=O)OC)(c3cc4c(cc3OC)N(C)[C@H]3[C@@](O)(C(=O)OC)[C@H](OC(C)=O)[C@]5(CC)C=CCN6CC[C@]43[C@@H]65)C2)C1
inactive: dose: 0.25 mg/kg/injection, schedule: Q01DX009 (ip), vehicle: water 109 % of control | dose: 0.5 mg/kg/injection, schedule: Q01DX009 (ip), vehicle: water 101 % of control | dose: 1.0 mg/kg/injection, schedule: Q01DX009 (ip), vehicle: water 111 % of control | dose: 2.0 mg/kg/injection, schedule: Q01DX009 (ip), vehicle: water 103 % of control | dose: 4.0 mg/kg/injection, schedule: Q01DX009 (ip), vehicle: water 114 % of control | dose: 8.0 mg/kg/injection, schedule: Q01DX009 (ip), vehicle: water 112 % of control
